Laboratory results published in patent US20240398784A1, “C-LINKED ISOQUINOLINE AMIDES AS LRRK2 INHIBITORS, PHARMACEUTICAL COMPOSITIONS, AND USES THEREOF” (Merck Sharp & Dohme LLC, priority 2021, published 2024).

The compounds below were run against LRRK2 G2019S (Homo sapiens, UniProt Q5S007, G2019S) (assay: LRRK2 G2019S Km ATP LanthaScreen assay). Conditions: read-out: LRRK2 pIC50 (converted).
Format: biochemical

Chain of LRRK2 G2019S (Q5S007 whole entry G2019S): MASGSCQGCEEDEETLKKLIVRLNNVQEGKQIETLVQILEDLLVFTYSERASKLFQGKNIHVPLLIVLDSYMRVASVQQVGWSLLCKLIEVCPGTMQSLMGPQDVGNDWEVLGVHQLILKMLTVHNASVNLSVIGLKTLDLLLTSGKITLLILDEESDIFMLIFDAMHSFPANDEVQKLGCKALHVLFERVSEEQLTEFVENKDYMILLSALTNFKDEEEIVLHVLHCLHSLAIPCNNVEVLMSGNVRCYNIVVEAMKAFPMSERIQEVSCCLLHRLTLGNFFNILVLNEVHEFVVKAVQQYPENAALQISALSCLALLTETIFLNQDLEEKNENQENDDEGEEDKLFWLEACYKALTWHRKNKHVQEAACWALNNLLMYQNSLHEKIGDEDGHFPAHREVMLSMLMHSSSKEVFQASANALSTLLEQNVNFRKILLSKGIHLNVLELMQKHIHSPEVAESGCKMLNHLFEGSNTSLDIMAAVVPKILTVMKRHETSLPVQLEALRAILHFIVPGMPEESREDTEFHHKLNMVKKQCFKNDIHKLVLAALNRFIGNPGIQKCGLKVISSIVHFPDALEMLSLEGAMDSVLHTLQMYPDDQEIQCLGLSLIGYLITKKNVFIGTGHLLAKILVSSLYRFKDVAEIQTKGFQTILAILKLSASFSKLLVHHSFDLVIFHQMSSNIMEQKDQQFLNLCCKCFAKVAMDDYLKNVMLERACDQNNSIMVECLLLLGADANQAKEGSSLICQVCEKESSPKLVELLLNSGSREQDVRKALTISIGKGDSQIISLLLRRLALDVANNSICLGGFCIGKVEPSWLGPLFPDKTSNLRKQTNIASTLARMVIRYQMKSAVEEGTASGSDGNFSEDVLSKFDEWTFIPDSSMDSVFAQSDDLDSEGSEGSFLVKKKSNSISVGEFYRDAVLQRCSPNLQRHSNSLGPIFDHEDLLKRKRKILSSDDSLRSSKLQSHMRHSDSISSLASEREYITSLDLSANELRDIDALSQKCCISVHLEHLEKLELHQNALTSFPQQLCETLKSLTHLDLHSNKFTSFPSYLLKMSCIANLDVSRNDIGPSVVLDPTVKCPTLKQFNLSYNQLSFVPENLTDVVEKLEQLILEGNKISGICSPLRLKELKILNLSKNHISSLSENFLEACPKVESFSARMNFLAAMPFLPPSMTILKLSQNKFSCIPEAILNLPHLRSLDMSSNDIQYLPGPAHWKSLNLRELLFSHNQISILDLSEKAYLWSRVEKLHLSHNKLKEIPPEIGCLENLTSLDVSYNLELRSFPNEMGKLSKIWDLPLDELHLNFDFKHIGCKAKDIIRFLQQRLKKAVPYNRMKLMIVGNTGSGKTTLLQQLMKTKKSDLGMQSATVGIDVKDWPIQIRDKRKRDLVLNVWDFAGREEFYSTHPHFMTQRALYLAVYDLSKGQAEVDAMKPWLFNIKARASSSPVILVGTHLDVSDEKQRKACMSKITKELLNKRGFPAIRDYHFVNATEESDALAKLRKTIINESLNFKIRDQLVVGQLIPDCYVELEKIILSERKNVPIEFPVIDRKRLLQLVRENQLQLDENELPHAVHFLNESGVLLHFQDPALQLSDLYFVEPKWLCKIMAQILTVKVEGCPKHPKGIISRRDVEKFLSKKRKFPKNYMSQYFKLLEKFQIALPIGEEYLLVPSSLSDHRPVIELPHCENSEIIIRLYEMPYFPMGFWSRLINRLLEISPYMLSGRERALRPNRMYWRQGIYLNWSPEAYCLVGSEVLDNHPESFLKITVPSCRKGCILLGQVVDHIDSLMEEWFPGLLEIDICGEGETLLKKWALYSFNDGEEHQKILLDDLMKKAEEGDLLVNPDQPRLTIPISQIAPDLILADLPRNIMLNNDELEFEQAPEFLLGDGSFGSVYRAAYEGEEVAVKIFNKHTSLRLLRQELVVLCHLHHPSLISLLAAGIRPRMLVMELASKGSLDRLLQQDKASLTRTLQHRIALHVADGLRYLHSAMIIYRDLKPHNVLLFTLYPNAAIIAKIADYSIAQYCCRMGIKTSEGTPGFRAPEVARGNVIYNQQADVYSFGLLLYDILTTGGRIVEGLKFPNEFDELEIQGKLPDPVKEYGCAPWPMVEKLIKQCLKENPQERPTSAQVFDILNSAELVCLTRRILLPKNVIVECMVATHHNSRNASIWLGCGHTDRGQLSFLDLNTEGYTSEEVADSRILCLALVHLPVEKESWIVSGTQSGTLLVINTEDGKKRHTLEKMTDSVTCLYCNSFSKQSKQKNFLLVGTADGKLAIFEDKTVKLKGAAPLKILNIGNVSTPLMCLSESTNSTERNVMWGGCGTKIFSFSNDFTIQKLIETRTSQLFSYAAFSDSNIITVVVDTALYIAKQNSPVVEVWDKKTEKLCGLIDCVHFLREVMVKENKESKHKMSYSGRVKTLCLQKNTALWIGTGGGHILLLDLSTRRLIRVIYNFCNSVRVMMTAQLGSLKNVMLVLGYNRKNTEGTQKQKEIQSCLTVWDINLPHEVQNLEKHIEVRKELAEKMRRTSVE

Compound	IC50 [nM]
Cn1cc(N2CCC(C(=O)Nc3cc4cc(C5(C#N)CC56CC6)ccc4cn3)C2)cn1 (stereo not drawn) [Ex-2.77]	10.2
Cc1cc2cnc(NC(=O)C3CC3c3ccn(C)n3)cc2cc1C1CCN(C2(C)COCC2F)CC1 (single isomer, unassigned) [Ex-16.1]	0.0813
CCC1C(C(=O)Nc2cc3cc(C(C)CC#N)c(Cl)cc3cn2)C1c1cnn(C)c1 (single isomer, unassigned) [Ex-9.15, N-(7-chloro-6-(1-cyanopropan-2-yl)isoquinolin-3-yl)-2-ethyl-3-(1-methyl-1H-pyrazol-4-yl)cyclopropane-1-carboxamide]	0.427
Cn1cc(CC(=O)Nc2cc3cc(C4CCN(C5(C)COCC5O)CC4)c(Cl)cc3cn2)c(Cl)n1 (stereo not drawn) [Ex-3.12]	0.251
CC(C)OC1CCC(C(=O)Nc2cc3cc(C4(C#N)CC45CC5)ccc3cn2)OC1 (single isomer, unassigned) [Ex-1.28, N-(6-((R or S)-1-cyanospiro[2.2]pentan-1-yl)isoquinolin-3-yl)-5R or 5S-isopropoxytetrahydro-2H-pyran-2R-carboxamide]	24
O=C(Nc1cc2cc(C3CCN(C4COCC4O)CC3)c(Cl)cc2cn1)C1CC12CCOC2 (single isomer, unassigned) [Ex-8.5, N-(7-chloro-6-(1-(4-hydroxytetrahydrofuran-3-yl)piperidin-4-yl)isoquinolin-3-yl)-5-oxaspiro[2.4]heptane-1-carboxamide]	0.1
N#CC1(c2ccc3cnc(NC(=O)C4CC45CCOC5)cc3c2)CC12CC2 (stereo not drawn) [Ex-2.65]	25.7
Cc1cc2cnc(NC(=O)C3CC34CCOC4)cc2cc1C1CCN(C2(C)COCC2F)CC1 (single isomer, unassigned) [Ex-15.12, N-(6-(1-(4-fluoro-3-methyltetrahydrofuran-3-yl)piperidin-4-yl)-7-methylisoquinolin-3-yl)-5-oxaspiro[2.4]heptane-1-carboxamide]	85.1
CC1CC1(C#N)c1ccc2cnc(NC(=O)C3CC3)cc2c1 (single isomer, unassigned) [Ex-18.8, (R or S)-N-(6-(1-cyano-2-methylcyclopropyl)isoquinolin-3-yl)cyclopropanecarboxamide]	5.37
CC(C)c1cc2cc(NC(=O)C3CC3c3cnn(C)c3)ncc2cc1Cl (stereo not drawn) [Ex-21.1, N-(7-chloro-6-isopropylisoquinolin-3-yl)-2-(1-methyl-1H-pyrazol-4-yl)cyclopropane-1-carboxamide]	0.0813
O=C(Nc1cc2cc(C3CCN(C4COC4)CC3)c(Cl)cc2cn1)C1CC12CCOCC2 (single isomer, unassigned) [Ex-9.8, N-(7-chloro-6-(1-(oxetan-3-yl)piperidin-4-yl)isoquinolin-3-yl)-6-oxaspiro[2.5]octane-1-carboxamide]	19.1
CC1(N2CCC(c3cc4cc(NC(=O)C5CC5c5ccccn5)ncc4cc3Cl)CC2)CCOC1 (single isomer, unassigned) [Ex-6.32, N-(7-chloro-6-(1-(3-methyltetrahydrofuran-3-yl)piperidin-4-yl)isoquinolin-3-yl)-2-(pyridin-2-yl)cyclopropane-1-carboxamide]	5.62
CC(=O)Nc1cc2cc(C3CCN(C4COC4)CC3)c(Cl)cc2cn1 [Ex-7.1, N-(7-chloro-6-(1-(oxetan-3-yl)piperidin-4-yl)isoquinolin-3-yl)acetamide]	11.5
COC1CC(C(=O)Nc2cc3cc(C4(C#N)CC45CC5)ccc3cn2)C1 (single isomer, unassigned) [Ex-1.4, (1R,3R or 1S,3S)-N-(6-((R or S)-1-cyanospiro[2.2]pentan-1-yl)isoquinolin-3-yl)-3-methoxycyclobutane-1-carboxamide]	3.63
N#CC1(c2ccc3cnc(NC(=O)C4CC4)cc3c2)CCC1 [Ex-17.2]	14.5
CC(C(=O)Nc1cc2cc(C3(C#N)CC34CC4)ccc2cn1)c1cnn(C)c1 (stereo not drawn) [Ex-2.111]	2.24
O=C(Nc1cc2cc(C3CCC(N4CC(F)(F)C4)CC3)c(Cl)cc2cn1)C1CC1c1ccccn1 (single isomer, unassigned) [Ex-5.5, N-(7-chloro-6-(4-(3,3-difluoroazetidin-1-yl)cyclohexyl)isoquinolin-3-yl)-2-(pyridin-2-yl)cyclopropane-1-carboxamide]	0.275
CC1CC1C(=O)Nc1cc2cc(C3CCN(C4COC4)CC3)c(Cl)cc2cn1 (single isomer, unassigned) [Ex-9.6, N-(7-chloro-6-(1-(oxetan-3-yl)piperidin-4-yl)isoquinolin-3-yl)-2-methylcyclopropane-1-carboxamide]	8.91
CC1(N2CCC(c3cc4cc(NC(=O)Cc5ccccn5)ncc4cc3Cl)CC2)COCC1O (stereo not drawn) [Ex-3.6]	0.24
CC1OCCC1N1CCC(c2cc3cc(NC(=O)C4CC4)ncc3cc2Cl)CC1 (single isomer, unassigned) [Ex-9.9, N-(7-chloro-6-(1-(2-methyltetrahydrofuran-3-yl)piperidin-4-yl)isoquinolin-3-yl)cyclopropanecarboxamide]	5.62
O=C(Nc1cc2cc(C3C4CCOCC43)c(Cl)cc2cn1)C1CC12CCOCC2 (single isomer, unassigned) [Ex-9.24, N-(6-(3-oxabicyclo[4.1.0]heptan-7-yl)-7-chloroisoquinolin-3-yl)-6-oxaspiro[2.5]octane-1-carboxamide]	6.61
CC1(C)CC(C(=O)Nc2cc3cc(C4(C#N)CC45CC5)ccc3cn2)CCO1 (stereo not drawn) [Ex-2.57]	2.14
CC1(N2CCC(c3cc4cc(NC(=O)C5CC5)ncc4cc3Cl)C(F)C2)COC1 (stereo not drawn) [Ex-14.3, N-(7-chloro-6-(3-fluoro-1-(3-methyloxetan-3-yl)piperidin-4-yl)isoquinolin-3-yl)cyclopropanecarboxamide]	0.589
CCC1C(C(=O)Nc2cc3cc(C4CCC(N5CC(C)(F)C5)CC4)c(Cl)cc3cn2)C1c1cnn(C)c1 (single isomer, unassigned) [Ex-11.2, (1R,2R,3R) or (1R,2S,3R) or (1S,2R,3S) or (1S,2S,3S)-N-(7-chloro-6-((cis or trans)-4-(3-fluoro-3-methylazetidin-1-yl)cyclohexyl)isoquinolin-3-yl)-2-ethyl-3-(1-methyl-1H-pyrazol-4-yl)cyclopropane-1-carboxamide]	9.12
CCC1C(C(=O)Nc2cc3cc(C(C)COC)c(Cl)cc3cn2)C1c1cnn(C)c1 (single isomer, unassigned) [Ex-9.13, N-(7-chloro-6-(1-methoxypropan-2-yl)isoquinolin-3-yl)-2-ethyl-3-(1-methyl-1H-pyrazol-4-yl)cyclopropane-1-carboxamide]	6.92

Other lines, results leading:

IC50 [nM]	Compound
5.37	CC1(C)CC(C(=O)Nc2cc3cc(C4CCN(C5(C)CCOC5)CC4)c(Cl)cc3cn2)CCO1 (single isomer, unassigned) [Ex-6.44, N-(7-chloro-6-(1-(3-methyltetrahydrofuran-3-yl)piperidin-4-yl)isoquinolin-3-yl)-2,2-dimethyltetrahydro-2H-pyran-4-carboxamide]
38.9	C[C@@]1(N2CCC(c3cc4cc(NC(=O)c5ccn(C6CC6)n5)ncc4cc3Cl)CC2)COC[C@@H]1O (single isomer, unassigned) [Ex-1.49, N-(7-chloro-6-(1-((3R,4R or 3S,4S)-4-hydroxy-3-methyltetrahydrofuran-3-yl)piperidin-4-yl)isoquinolin-3-yl)-1-cyclopropyl-1H-pyrazole-3-carboxamide]
72.4	CC(C)Cn1nccc1C1CC1C(=O)Nc1cc2cc(C3CCN(C4(C)COCC4O)CC3)c(Cl)cc2cn1 (single isomer, unassigned) [Ex-4.61, N-(7-chloro-6-(1-(4-hydroxy-3-methyltetrahydrofuran-3-yl)piperidin-4-yl)isoquinolin-3-yl)-2-(1-isobutyl-1H-pyrazol-5-yl)cyclopropane-1-carboxamide]
0.355	CC1(C)CC1C(=O)Nc1cc2cc(C3CCN(C4(C)COCC4O)CC3)c(Cl)cc2cn1 (stereo not drawn) [Ex-2.12]
47.9	Cc1cc2cnc(NC(=O)C3CC34CCOCC4)cc2cc1C1CCN(C2(C)COCC2C)CC1 (single isomer, unassigned) [Ex-15.3, N-(6-(1-(3,4-dimethyltetrahydrofuran-3-yl)piperidin-4-yl)-7-methylisoquinolin-3-yl)-6-oxaspiro[2.5]octane-1-carboxamide]
145	CC1C(C(=O)Nc2cc3cc(C4CCN(C5(C)COCC5O)CC4)c(Cl)cc3cn2)C12CCOCC2 (single isomer, unassigned) [Ex-10.8, N-(7-chloro-6-(1-(4-hydroxy-3-methyltetrahydrofuran-3-yl)piperidin-4-yl)isoquinolin-3-yl)-2-methyl-6-oxaspiro[2.5]octane-1-carboxamide]
2.45	CC(C)n1nccc1C1CC1C(=O)Nc1cc2cc(C3CCN(C4(C)COCC4O)CC3)c(Cl)cc2cn1 (single isomer, unassigned) [Ex-4.64, N-(7-chloro-6-(1-(4-hydroxy-3-methyltetrahydrofuran-3-yl)piperidin-4-yl)isoquinolin-3-yl)-2-(1-isopropyl-1H-pyrazol-5-yl)cyclopropane-1-carboxamide]
44.7	CC1C(C(=O)Nc2cc3cc(C4CCN(C5(C)COCC5O)CC4)c(Cl)cc3cn2)C12CCOCC2 (single isomer, unassigned) [Ex-10.7, N-(7-chloro-6-(1-(4-hydroxy-3-methyltetrahydrofuran-3-yl)piperidin-4-yl)isoquinolin-3-yl)-2-methyl-6-oxaspiro[2.5]octane-1-carboxamide]
42.7	CC1(N2CCC(c3cc4cc(NC(=O)C5CC56CCOC6)ncc4cc3Cl)CC2)COCC1F (single isomer, unassigned) [Ex-6.1, (R or S)-N-(7-chloro-6-(1-((3R,4R or 3S,4S)-4-fluoro-3-methyltetrahydrofuran-3-yl)piperidin-4-yl)isoquinolin-3-yl)-5-oxaspiro [2.4] heptane-1-carboxamide]
0.676	Cc1cc2cnc(NC(=O)C3C4CCOCC43)cc2cc1C1CCN(C2(C)COCC2O)CC1 (stereo not drawn) [Ex-2.52]
1.55	CC1(N2CCC(c3cc4cc(NC(=O)C5CC5F)ncc4cc3Cl)CC2)COCC1O (stereo not drawn) [Ex-3.4]
